This is an account of results in PubChem BioAssay (NCI).

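Compound exposure: 48 hours, 5 concentrations, 96-well plates. GI50: concentration for 50% inhibition of growth. TGI: total growth inhibition.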

Test in all cases: NCI-60 cell line screen, 48 h
Assay [1] deals with SF-268 CNS.
Assay [2] deals with OVCAR-4 ovarian.
Assay [3] deals with HCC-2998 colon.
Assay [4] deals with SK-MEL-28 melanoma.
The test system of assay [5] is SF-295 CNS.
In assay [6] the test system is M14 melanoma.
Assay [7] has as its system IGROV1 ovarian.
Assay [8] deals with UACC-62 melanoma.
Assay [9] concerns A498 renal.
In assay [10] the test system is HCT-116 colon.

For `Clc1ccc(Cc2nc3ccccc3s2)c(Cl)c1`, the TGI worked out at 30.5 µM in [1]; 27 µM in assay [2]; 33.4 µM in [3]; 33.1 µM in assay [4]; 31.8 µM in [5]; 31.3 µM in assay [6]. For the same molecule, the TGI in assay [7] worked out at 30.6 µM; in [8], 28.9 µM; in assay [9], 41.5 µM.
For `CC(=O)N[C@@H]1C(O)CN2C(=O)C(=O)O[C@H](C(O)CO)[C@@H]12` (stereo partly specified), the TGI in [1], in [3], in assay [4], in [5], in assay [7] and in [10] was more than 100 µM each time. In assay [9], this molecule registered a TGI of more than 100 µM.
For the molecule `O=C(/C=C/C12c3ccccc3C(c3ccccc31)C1C(=O)N(c3ccccc3)C(=O)C12)c1ccccc1` (stereo unspecified), the GI50 in [1] was 8.56 µM; in assay [2], 2940 nM; in [3], 1750 nM; in [4], 2480 nM; in assay [6], 2510 nM; in [7], 2.06 µM. For the same molecule, the GI50 in assay [10] was 695 nM; in assay [8] it was 1660 nM; in assay [9], 0.763 µM. Besides, the TGI was more than 100 µM in assay [1]; more than 100 µM in [2]; 3.62 µM in [3]; 7.09 µM in assay [4]; 10.1 µM in assay [6]; 6.05 µM in assay [7]. In addition, the figures for the TGI in [10], in assay [8] and in [9] were 2.07 µM, 4.94 µM and 2.2 µM, respectively.
On to `CCc1cccc(C(C)C)c1NC(=O)C(=O)CC(=O)c1c(C)n([O-])c2ccccc2[n+]1=O`, for which the TGI in assay [1], in assay [2], in [3], in assay [4], in assay [6] and in assay [7] was more than 100 µM in each case. The TGI in assay [10], in assay [8] and in [9] was more than 100 µM in each case.
Take `C/C(=N\O)c1cccc(Nc2cc(-n3ccnn3)c3ccccc3n2)c1`: the GI50 was more than 100 µM in assay [1]; 250 nM in assay [2]; 20500 nM in [3]; 444 nM in assay [4]; 18.5 µM in [5]; 12.6 µM in [7]. Moreover, the GI50 was 14100 nM in [10], 12800 nM in [8] and 15.2 µM in [9]. Moreover, the TGI in assay [1] is more than 100 µM; in assay [2] it was 27.8 µM; in [3], 56.5 µM; in assay [4], 30.2 µM; in [5], 47.8 µM; in [7], 27.7 µM. Also, the results for the TGI in assay [10], in assay [8] and in assay [9] were 27.1 µM, 25.4 µM and 38.3 µM, respectively.
In the case of `CC1CCP(=O)(c2ccccc2)c2ccccc21` (stereo unspecified), the TGI in assay [2], in assay [3], in assay [4], in assay [5], in [6] and in assay [7] was more than 100 µM in each case. For the same molecule, the figures for the TGI in assay [10], in [8] and in [9] were 46.7 µM, more than 100 µM and more than 100 µM, respectively.
Consider `Oc1cc(O)c(Oc2cccc(O)c2O)c(O)c1`, for which the TGI in [1] is more than 100 µM; in [2], 31.6 µM; in assay [3], more than 100 µM; in assay [4] it was more than 100 µM; in assay [5], more than 100 µM; in assay [6], more than 100 µM. Also, the TGI in assay [7], in assay [8] and in assay [9] was more than 100 µM throughout.
As to `O=C(c1ccccc1)C1CCCCN1C(=O)c1ccccc1` (stereo unspecified), the TGI in [1], in assay [2], in [3], in [4], in [6] and in [7] was more than 100 µM in each case. The TGI in assay [10], in [8] and in [9] was more than 100 µM in each case.
As to `O=C(c1ccc(Cl)cc1)c1ccc(OCCCCCCCCCCOc2ccc(C(=O)c3ccc(Cl)cc3)cc2)cc1`, the TGI in assay [1], in assay [3], in assay [4], in [5], in assay [7] and in assay [8] was more than 100 µM each time. Also, in assay [9], the TGI was more than 100 µM.
On to `OCCCOC(c1ccccc1)(c1ccccc1)c1ccccc1`, for which the TGI in assay [1], in [2], in [3], in [4], in [5] and in assay [6] was more than 100 µM in each case. In addition, the TGI in [7], in assay [10] and in [8] was more than 100 µM throughout.
With `O=C(c1ccc2ccccc2c1)c1c(C(F)(F)F)n([O-])c2cc(F)c(F)cc2[n+]1=O`, the GI50 in assay [1] is 3.36 µM; in assay [2] it was 13000 nM; in assay [3], 2420 nM; in assay [4] it was 4220 nM; in assay [5], 2.02 µM; in assay [6], 2530 nM. In addition, the GI50 in assay [10] is 1500 nM; in assay [8], 2750 nM; in assay [9] it was 16 µM. Further, the TGI came out at 19.5 µM in [1]; 27.2 µM in assay [2]; 7.65 µM in assay [3]; 12.7 µM in [4]; 4.9 µM in assay [5]; 7.11 µM in assay [6]. The TGI in assay [10] stood at 3.02 µM; in assay [8], 6.62 µM; in assay [9], 32.1 µM.
With `CC(C)C1(O)C(c2ccccc2)=C(c2ccccc2)C(c2ccccc2)=C1c1ccccc1`, the TGI is 27.6 µM in [1]; more than 100 µM in assay [2]; 30.4 µM in [3]; 30.2 µM in [5]; 22.4 µM in [6]; more than 100 µM in assay [7]. Also, the TGI amounted to 13.4 µM in assay [10], 20.9 µM in assay [8] and 56.3 µM in assay [9].
